The molecules below were run against Protein kinase C alpha type (Homo sapiens) (UniProt P17252) (assay: Displacement of [3H]PDBu from protein kinase C alpha at 100 uM; Range 60 to 80).

SMILES	inhibition [%]
CCCCCCCCCCCCOc1cccc2c1C(=O)O[C@]2(CO)COC(C)=O	70
CC(=O)OC[C@@]1(CO)OC(=O)c2c(OCCCCCCCCCCCCOc3cccc4c3C(=O)O[C@]4(CO)COC(C)=O)cccc21	70

Other lines, results leading:

inhibition [%]	SMILES
70	O=C(CCCCCCCCCCCCC(=O)OC[C@@]1(CO)OC(=O)c2c(OCc3ccccc3)cccc21)CC[C@@]1(CO)OC(=O)c2c(OCc3ccccc3)cccc21
70	O=C(CCCCCCCCCCC(=O)OC[C@@]1(CO)OC(=O)c2c(OCc3ccccc3)cccc21)CC[C@@]1(CO)OC(=O)c2c(OCc3ccccc3)cccc21

What follows are molecules tested against Protein kinase C alpha type (Homo sapiens) (UniProt P17252) (assay: Displacement of [3H]PDBu from protein kinase C alpha at 100 uM; Range 0 to 20).

SMILES	inhibition [%]
O=C(CC[C@@]1(CO)OC(=O)c2c(OCc3ccccc3)cccc21)c1ccc(C(=O)OC[C@@]2(CO)OC(=O)c3c(OCc4ccccc4)cccc32)cc1	2
O=C(CC[C@@]1(CO)OC(=O)c2c(OCc3ccccc3)cccc21)c1cccc(C(=O)OC[C@@]2(CO)OC(=O)c3c(OCc4ccccc4)cccc32)c1	4
O=C(CC[C@@]1(CO)OC(=O)c2c(OCc3ccccc3)cccc21)c1ccccc1C(=O)OC[C@@]1(CO)OC(=O)c2c(OCc3ccccc3)cccc21	4
CC(=O)OC[C@@]1(CO)OC(=O)c2c(OCCCCCCCCCCCCCCCCCCCCCCCCOc3cccc4c3C(=O)O[C@]4(CO)COC(C)=O)cccc21	19

Continued, values first:

inhibition [%]	SMILES
10	O=C(CCCCCCCCCCCCCCCCCCC(=O)OC[C@@]1(CO)OC(=O)c2c(OCc3ccccc3)cccc21)CC[C@@]1(CO)OC(=O)c2c(OCc3ccccc3)cccc21
19	O=C(CCCCCCC(=O)OC[C@@]1(CO)OC(=O)c2c(OCc3ccccc3)cccc21)CC[C@@]1(CO)OC(=O)c2c(OCc3ccccc3)cccc21
18	O=C(CCCCC(=O)OC[C@@]1(CO)OC(=O)c2c(OCc3ccccc3)cccc21)CC[C@@]1(CO)OC(=O)c2c(OCc3ccccc3)cccc21

These molecules were tested against Protein kinase C alpha type (Homo sapiens) (UniProt P17252) (assay: Displacement of [3H]PDBu from protein kinase C alpha at 100 uM; Range 20 to 40).

inhibition [%]	SMILES
25	CC(=O)OC[C@@]1(CO)OC(=O)c2c(OCCCCCCCCCCCCCCCCCCCCCCOc3cccc4c3C(=O)O[C@]4(CO)COC(C)=O)cccc21

Each molecule was assayed against Protein kinase C alpha type (Homo sapiens) (UniProt P17252) (assay: Displacement of [3H]PDBu from protein kinase C alpha at 100 uM; Range 2 to 40).

inhibition [%]	SMILES
30	CC(=O)OC[C@@]1(CO)OC(=O)c2c(OCc3ccccc3)cccc21

The molecules below were run against Protein kinase C alpha type (Homo sapiens) (UniProt P17252) (assay: Displacement of [3H]PDBu from protein kinase C alpha at 100 uM; Range 20 to 30).

inhibition [%]	SMILES
30	O=C(CCCCCCCCCCCCCCCCC(=O)OC[C@@]1(CO)OC(=O)c2c(OCc3ccccc3)cccc21)CC[C@@]1(CO)OC(=O)c2c(OCc3ccccc3)cccc21

What follows are molecules tested against Protein kinase C alpha type (Homo sapiens) (UniProt P17252) (assay: Displacement of [3H]PDBu from protein kinase C alpha at 100 uM; Range 80 to 100).

inhibition [%]	SMILES
90	CC(=O)OC[C@@]1(CO)OC(=O)c2c(OCCCCCCCCCCCCCCOc3cccc4c3C(=O)O[C@]4(CO)COC(C)=O)cccc21
92	CC(=O)OC[C@@]1(CO)OC(=O)c2c(OCCCCCCCCCCCCCCCOc3cccc4c3C(=O)O[C@]4(CO)COC(C)=O)cccc21
91	CC(=O)OC[C@@]1(CO)OC(=O)c2c(OCCCCCCCCCCCCCCCCOc3cccc4c3C(=O)O[C@]4(CO)COC(C)=O)cccc21
85	CC(=O)OC[C@@]1(CO)OC(=O)c2c(OCCCCCCCCCCCCCOc3cccc4c3C(=O)O[C@]4(CO)COC(C)=O)cccc21
90	CCCCCCCCCCCC(=O)OC[C@@]1(CO)OC(=O)c2c(OCc3ccccc3)cccc21

These molecules were tested against Protein kinase C alpha type (Homo sapiens) (UniProt P17252) (assay: Displacement of [3H]PDBu from protein kinase C alpha at 100 uM; Range 40 to 60).

SMILES	inhibition [%]
CC(=O)OC[C@@]1(CO)OC(=O)c2c(OCCCCCCCCCCOc3cccc4c3C(=O)O[C@]4(CO)COC(C)=O)cccc21	45
CC(=O)OC[C@@]1(CO)OC(=O)c2c(OCCCCCCCCCOc3cccc4c3C(=O)O[C@]4(CO)COC(C)=O)cccc21	42
CC(=O)OC[C@@]1(CO)OC(=O)c2c(OCCCCCCCCCCCOc3cccc4c3C(=O)O[C@]4(CO)COC(C)=O)cccc21	60

Continued, values first:

inhibition [%]	SMILES
41	O=C(CCCCCCCCC(=O)OC[C@@]1(CO)OC(=O)c2c(OCc3ccccc3)cccc21)CC[C@@]1(CO)OC(=O)c2c(OCc3ccccc3)cccc21
54	O=C(CCCCCCCCCCCCCCC(=O)OC[C@@]1(CO)OC(=O)c2c(OCc3ccccc3)cccc21)CC[C@@]1(CO)OC(=O)c2c(OCc3ccccc3)cccc21
